Columns and labels:
[1] = test system: Tagia sp.; conditions: acute; duration: 14 days; mortality
[2] = test system: Oncorhynchus mykiss; conditions: acute; duration: 96 hours; mortality
[3] = test system: Rattus norvegicus; conditions: for NOAEL: inhalation
[4] = test system: Coturnix japonica; conditions: acute; oral; mortality
[5] = test system: Apis mellifera; conditions: acute; duration: 48 hours; oral; unspecified; mortality
[6] = chronic, duration: 2 years, no effects
[7] = reproduction developmental, mortality
[8] = subchronic, duration: 90 days, no effects

| Structure (SMILES) | LC50 [1] | LC50 [2] | LD50 ([3]; acute, oral, mortality) | NOAEL [3, 6] | NOAEL [3, 7] | NOAEL [3, 8] | LD50 [4] | LD50 [5] | NOAEL ([3]; developmental, duration: 10 days, development) | NOAEL ([3]; subchronic, duration: 90 days, mortality) |
| --- | --- | --- | --- | --- | --- | --- | --- | --- | --- | --- |
| [Al+3].[P-3] [Aluminum phosphide] | 664 mg/kg | 4.68 ng/mL | 8.7 mg/kg-day | 1.1 mg/kg-day | 1.9 mg/kg-day | 1.1 mg/kg-day | 49 mg/kg-day | 0.24 µg/piece |  |  |
| P [Phosphine] |  |  |  | 1.1 mg/kg-day | 1.9 mg/kg-day | 1.1 mg/kg-day |  |  | 1.9 mg/kg-day | 1.11 mg/kg-day |

From EPA's ToxValDB 9.5 (doi:10.2903/j.efsa.2009.182r)
